Data on 7 compounds can be found in publication PMC10648349, “Aromatic Diboronic Acids as Effective KPC/AmpC Inhibitors” (Molecules, 2023).

In brackets after ≈: the same amount, converted by molar mass. Several values for one entry are separate records, joined by “and”; a condition that tells them apart may be missing. Equal entries are not always repeated.

One experiment relates to yeasts. The experiment can be described thus: antifungal activity, MIC/MFC. The experiment is classed as cell-based. On the procedure:
(§1) Direct antimicrobial activity against Gram-negative and Gram-positive bacterial strains, as well as against yeast, was examined as previously described by the disc-diffusion test, the MIC determination assay, the MBC (for bacteria), and the MFC (for yeasts) determination tests. All the above-mentioned tests were performed according to EUCAST [71, 72] and CLSI [73, 74, 75, 76, 77] recommendations. The following reference agents were used: nitrofurantoin (for Gram-negative rods), linezolid (for Gram-positive bacteria), and fluconazole (in the case of fungi). The new aromatic diboronic acids were dissolved in DMSO (Sigma, St. Louis, MO, USA). In the disc-diffusion test, the concentration of new agents was 0.4 mg per disc. Depending on the solubility, the MIC and MBC/MFC values were determined up to 100 mg/L for 1k, up to 200 mg/L for 7c, and up to 400 mg/L for the remaining compounds: 1a–1j, 2a–2g, 3a–3f, 4a–4b, 5a–5c, 6a and 7a–7b.

Another experiment has as its system Gram-negative rods. Description: MIC in the presence of efflux pump inhibitor PAβN. It counts as cell-based. The note with it: PAβN 20 mg/L. How it is done:
To investigate the contribution of the MDR efflux pumps to the resistance of Gram-negative rods to the newly synthesized compounds, the MIC values of studied agents, with or without the pump inhibitor, PAβN (20 mg/L) (Sigma, St. Louis, MO, USA), were evaluated. The MIC determination was performed in Mueller–Hinton II broth medium (MHB) (Becton, Dickinson and Company, Franklin Lakes, NJ, USA) using 2-fold serial dilutions of tested agents, according to the CLSI guidelines. To minimize the influence of PAβN on the destabilization of bacterial cell covers, the tests were conducted in the presence of 1 mM MgSO4 (Sigma, St. Louis, MO, USA). At least a 4-fold reduction in the MIC value after the addition of PAβN was considered significant.

In the next experiment the test system is E. coli DH5α. Description: whole cell assay, meropenem MIC with tested agent. It counts as cell-based, Escherichia coli. The note with it: for MIC: Escherichia coli, read-out: MIC of agent alone; for MIC of meropenem in combination with agent: agent 16 mg/L. On the procedure: (§2) To examine the ability of tested agents to inhibit various carbapenemases and AmpC-enzymes, their synergy with antibiotics against β-lactamase-producing strains was assessed by checkerboard microdilution assay, with slight modification. Checkerboards were prepared in microtiter plates, with seven two-fold dilutions of β-lactams (1–64 mg/L) in the rows and three two-fold dilutions of tested agents and PBA (4–16 mg/L) in the columns. Tested agents’ concentrations were limited to the concentrations at which the newest commercially available BLIs (vaborbactam, relebactam, and avibactam) are used in susceptibility testing. Plates were inoculated and incubated as in the MIC microdilution assay. Parallel, MICs of tested agents and PBA alone were determined by the microdilution assay. Following the incubation, antibiotic MICs in the presence of each agent’s concentration were determined. Moreover, for the first well without growth found in each checkerboard row and column along the growth/non-growth interface, the fractional inhibitory concentration index (FICI) was calculated using the formula below:FICI = [(MIC of antibiotic in combination)/(MIC of antibiotic alone)] + [(MIC of the tested agent in combination)/(MIC of tested agent alone)].

Experiment [1] concerns E. coli 82 TR(pl 81), transformant carrying blaKPC-3. The experiment can be described thus: whole cell assay, meropenem MIC with tested agent. It counts as cell-based, Escherichia coli. The note with it: for MIC: Escherichia coli, read-out: MIC of agent alone. On the procedure: as §2
For experiment [2], the target named is KPC-3 in purified protein extract from E. coli 82 TR(pl 81) (Klebsiella pneumoniae, UniProt Q9F663, H272Y). The experiment can be described thus: nitrocefin hydrolysis test. The note with it: single repetitions. It counts as biochemical. How it is done:
Overnight culture of E. coli 82 TR(pl 81) in MHB was diluted 1:100 into fresh MHB and incubated with shaking at 37 °C until an OD600 of 1 was attained. […] Further incubation was performed under the same conditions until an OD600 of 3 was reached. The culture with the required OD600 was centrifuged (6700× g, 10 min) and the supernatant was discarded. From the obtained bacterial cell pellet total proteins were extracted with the ReadyPreps™ Protein Preparation Kit (Epicentre Biotechnologies, Madison, WI, USA) and used in the subsequent nitrocefin hydrolysis test, performed in a 96-well microplate. Nitrocefin is a chromogenic cephalosporin substrate routinely used to detect the presence of β-lactamases. First, 20 μL of the protein extract was mixed with 80 μL of tested agents (1a, 2a, 3a and PBA as a reference BLI, each examined at concentrations: 4, 8 and 16 mg/L) or with 80 μL of the phosphate buffer (positive control—corresponding to KPC enzyme activity in the purified total proteins extracted from E. coli 82 TR(pl 81) cells). After 10 min of incubation at the room temperature 100 μL of the nitrocefin (Oxoid, Basingstoke, Hampshire, England) was added to reach its final concentration of 150 μM. β-lactamases hydrolyze the β-lactam ring of nitrocefin, causing its degradation and color change. Nitrocefin hydrolysis was evaluated after 3 min of the incubation at room temperature.
As in our previous publication the presence of β-lactamases in the purified protein extract with and without tested agents was assessed by the spectrophotometric measurement of the rates of nitrocefin hydrolysis as relative absorbance at 486 nm. The level of the measured absorbance indicated β-lactamase activity. Finally, the difference in the relative absorbance between the positive control and the sample concentration of the tested inhibitors was calculated and expressed as a percentage. A reduction in the relative absorbance level in the presence of a tested agent was taken as an indicator of the BLI activity of a used aromatic diboronic acid. The experiment was performed in triplicate.

Another experiment concerns Gram-positive strains. The experiment can be described thus: direct antimicrobial activity, MIC. It counts as cell-based. On the procedure: as §1
In another experiment the test system is KPC producers. The experiment can be described thus: microdilution with carbapenems. The experiment is classed as cell-based. On the procedure:
as §2
(§3) For calculations, all off-scale MICs were converted to the next-highest doubling concentration. Subsequently, both the average and the lowest FICI were interpreted. The interpretation was as follows: FICI ≤ 0.5, synergy; 0.5 < FICI ≤ 4, indifference and FICI > 4, antagonism. Primarily, examined combinations consisted of meropenem (Pol-Aura, Morag, Poland) plus tested agents against carbapenemases-producing strains and ceftazidime (Pol-Aura, Morag, Poland) plus tested agents against AmpC-producing strains. For agents that reduced meropenem MIC at least 4-fold for at least two tested strains, similar assays were performed with imipenem (Pol-Aura, Morag, Poland) and ertapenem (Pol-Aura, Morag, Poland).

For another experiment, the system named is AmpC producers. The experiment can be described thus: microdilution with ceftazidime. The experiment is classed as cell-based. On the procedure: as §2, §3
(Broth dilution looks for growth in wells or tubes with falling amounts of substance.)

Sequence of KPC-3 in purified protein extract from E. coli 82 TR(pl 81) (Q9F663 25-293 H272Y): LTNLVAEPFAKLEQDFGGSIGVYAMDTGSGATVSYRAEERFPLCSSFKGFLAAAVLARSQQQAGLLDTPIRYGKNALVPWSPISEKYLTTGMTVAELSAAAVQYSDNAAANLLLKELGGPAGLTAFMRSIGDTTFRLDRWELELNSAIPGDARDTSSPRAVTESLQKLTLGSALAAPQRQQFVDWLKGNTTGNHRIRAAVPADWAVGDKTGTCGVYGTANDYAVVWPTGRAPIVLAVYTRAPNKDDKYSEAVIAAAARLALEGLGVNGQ

`OB(O)c1ccc(C(F)(F)F)cc1B(O)O` [3e] displayed a minimal inhibitory concentration (MIC) in the experiment with yeasts (most Candida spp.) of 3.12 to 6.25 µg/mL (≈ 13.3 to 26.7 µM). This compound also had an MFC in the experiment on yeasts (yeasts against which fungicidal activity was noticed) of 400 µg/mL (≈ 1710 µM). Moreover, the “reduction of MIC in the presence of PAβN” value in the experiment with Gram-negative rods was 4–16 fold.

As for `OB(O)c1cccc(B(O)O)c1` [2a], the MIC (in the experiment on E. coli DH5α; in experiment [1]) was more than 400 µg/mL in each case. The “MIC of meropenem in combination with agent” value (from here on “MIC of meropenem”) with E. coli DH5α was 0.016 µg/mL; in experiment [1] (agent 4 mg/L), 1 µg/mL; in experiment [1] (agent 8 mg/L), 1 µg/mL; in experiment [1] (agent 16 mg/L), 1 µg/mL. Further, the “meropenem MIC reduction” value in experiment [1] (agent 4, 8 and 16 mg/L) is 2 fold. Further, the “Relative absorbance (nitrocefin hydrolysis, 486 nm)” value (“Relative absorbance” for short) is 1.605 and 1.649 and 1.595 in experiment [2] (agent 4 mg/L); 1.520 and 1.499 and 1.528 in experiment [2] (agent 8 mg/L); 1.377 and 1.274 and 1.280 in experiment [2] (agent 16 mg/L).

On to `OB(O)c1ccc(B(O)O)c(F)c1F` [1c], for which the figures for the MIC in the experiment on Gram-positive strains (enterococci) and in the experiment with Gram-positive strains (staphylococci) were 100 to 400 µg/mL (≈ 496 to 1980 µM) and 12.5 to 50 µg/mL (≈ 62 to 248 µM), respectively.

`OB(O)c1ccccc1B(O)O` [3a, phenylene-1,2-diboronic acid]: the MIC in the experiment with E. coli DH5α was found to be 400 µg/mL. Further, the “MIC of meropenem” value in the experiment on E. coli DH5α was 0.016 µg/mL; in experiment [1] (agent 4 mg/L), 0.50 µg/mL; in experiment [1] (agent 8 mg/L), 0.125 µg/mL; in experiment [1] (agent 16 mg/L), 0.062 µg/mL. Also, the “meropenem MIC reduction” value in experiment [1] (agent 4 mg/L) is listed as 4 fold; in experiment [1] (agent 8 mg/L) it was 16 fold; in experiment [1] (agent 16 mg/L) it was 32 fold. Further, the “carbapenems' MIC reduction, up to” value with KPC producers (agent 4 mg/L) is reported as not above 8 fold; with KPC producers (agent 8 mg/L) it was “up to 16 fold”; in the experiment with KPC producers (agent 16 mg/L), “up to 64 fold”. Moreover, in the experiment on KPC producers (checkerboard assays), the “fractional inhibitory concentrations indices with carbapenems” value is 0.1–0.32. The figures for the “ceftazidime MIC reduction, up to” value in the experiment with AmpC producers (agent 4 mg/L), with AmpC producers (agent 8 mg/L) and with AmpC producers (agent 16 mg/L) were not above 2 fold, “up to 4 fold” and not above 8 fold, respectively. Besides, the “Relative absorbance” value in experiment [2] (agent 4 mg/L) is 1.451 and 1.436 and 1.174; in experiment [2] (agent 8 mg/L) it was 1.305 and 1.279 and 1.249; in experiment [2] (agent 16 mg/L) it was 1.090 and 1.114 and 1.077.

Take `OB(O)c1ccc(B(O)O)cc1` [1a]: the MIC (in the experiment with E. coli DH5α; in experiment [1]) was more than 400 µg/mL in each case. In addition, the “MIC of meropenem” value in the experiment with E. coli DH5α amounted to 0.016 µg/mL; in experiment [1] (agent 4 mg/L), 0.50 µg/mL; in experiment [1] (agent 8 mg/L), 0.25 µg/mL; in experiment [1] (agent 16 mg/L), 0.125 µg/mL. In addition, the “carbapenems' MIC reduction, up to” value in the experiment on KPC producers (agent 4 mg/L) is not above 2 fold; with KPC producers (agent 8 mg/L) it was “up to 8 fold”. The “ertapenem potentiation better than PBA, by up to” value in the experiment with KPC producers (all KPC producers) is reported as “up to 8 fold”. In addition, the “Relative absorbance” value in experiment [2] (agent 4 mg/L) is 1.348 and 1.320 and 1.308; in experiment [2] (agent 8 mg/L), 1.214 and 1.079 and 1.201; in experiment [2] (agent 16 mg/L), 0.998 and 1.066 and 1.076.

`OB(O)c1ccsc1B(O)O` [5a, thiophene-2,3-diboronic acid]: the “ceftazidime MIC reduction, up to” value with AmpC producers (agent 4 mg/L) is on record as not above 2 fold; in the experiment with AmpC producers (agent 8 mg/L) it was “up to 4 fold”; in the experiment on AmpC producers (agent 16 mg/L), not above 8 fold.

Regarding `OB(O)c1cc(F)ccc1F` [7a, 2,5-difluorophenylboronic acid], the figures for the “carbapenems' MIC reduction, up to” value in the experiment on KPC producers (agent 4 mg/L) and in the experiment with KPC producers (agent 8 mg/L) were not above 2 fold and “up to 8 fold”, respectively. For the same compound, the figures for the “ceftazidime MIC reduction, up to” value with AmpC producers (agent 4 mg/L), in the experiment on AmpC producers (agent 8 mg/L) and in the experiment with AmpC producers (agent 16 mg/L) were not above 8 fold, “up to 16 fold” and “up to 32 fold”, respectively.

The MIC is the least concentration at which growth counts as inhibited. By MFC is commonly meant the lowest tested concentration that kills the fungus rather than only halting it. The low end stands for more potent killing, the high end for less potent killing.
